target: CXCR4 (Homo sapiens (Human), UniProt P61073); experiment: Functional calcium mobilization assay (SDF-1α induced); format: cell-based; conditions: CCRF-CEM, read-out: % inhibition at 1 μM
Description: Functional modulation of CXCR4 was determined by calcium mobilization assay using leukemic lymphoid CEM cells, which naturally express high levels of CXCR4. Generally, the assay is carried out as follows: Cells are grown in vitro to confluency. On the day of the assay, cells are removed from the incubator, culture medium removed and replaced with a calcium sensitive dye (Calcium3 assay kit; Molecular Devices, Sunnyvale, Calif.). The cells are allowed to dye load for 45-60 min at 37° C. in the cell culture incubator and then allowed to equilibrate to room temperature for no more than 15 min before assay.
Compound plates were generated containing up to 3% dimethyl sulfoxide in media kept at room temperature. Test compounds were added to the cells at a 1:3 dilution, and calcium mobilization was measured using a Flex Station fluorescence imager (Molecular Devices). This first read was used to determine direct agonist activation of the CXCR4 receptor by the test compounds. […] Full dose response curves were generated daily for SDF-1a to calculate IC50 concentrations. The IC50 values are reported. In cases, where one was not determined, a percent inhibition at the 1 μM concentration was extrapolated.
Functional calcium mobilization assay was conducted as described in Example 27.

CXCR4, sequence (P61073 whole entry): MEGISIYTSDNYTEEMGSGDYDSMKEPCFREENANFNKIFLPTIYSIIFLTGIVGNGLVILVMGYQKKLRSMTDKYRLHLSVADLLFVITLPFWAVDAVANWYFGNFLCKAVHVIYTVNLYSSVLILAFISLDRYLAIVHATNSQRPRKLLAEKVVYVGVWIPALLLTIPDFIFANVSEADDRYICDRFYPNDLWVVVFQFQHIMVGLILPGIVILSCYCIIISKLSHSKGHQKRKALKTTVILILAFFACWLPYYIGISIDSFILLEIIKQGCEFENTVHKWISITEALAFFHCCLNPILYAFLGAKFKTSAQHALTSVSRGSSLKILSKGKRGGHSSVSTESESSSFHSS

| Compound | inhibition at 1 µM |
| --- | --- |
| NCCCCN(Cc1cn(Cc2ccccc2)nn1)C1CCCc2cccnc21 (stereo not drawn) | 45% |
| c1ccc(CN(CCCCN(Cc2nccc3c2[nH]c2ccccc23)C2CCCc3cccnc32)Cc2ccccn2)nc1 (stereo not drawn) | 27% |
| NCCCN(Cc1nccc2c1[nH]c1ccccc12)C1CCCc2cccnc21 (stereo not drawn) | 0% |
| CCN(CC)CCCCN(Cc1nccc2c1[nH]c1ccccc12)C1CCCc2cccnc21 (stereo not drawn) | 4% |
| NCCN(Cc1nccc2c1[nH]c1ccccc12)C1CCCc2cccnc21 (stereo not drawn) | 0% |
| c1cnc2c(c1)CCCC2N(CCNC1=NCCN1)Cc1nccc2c1[nH]c1ccccc12 (stereo not drawn) | 0% |
| c1cnc2c(c1)CCCC2N(CCCNC1=NCCN1)Cc1nccc2c1[nH]c1ccccc12 (stereo not drawn) | 6% |
| c1cnc2c(c1)CCCC2N(CCCCN(CC1CC1)CC1CC1)Cc1nccc2c1[nH]c1ccccc12 (stereo not drawn) | 0% |
| c1cnc2c(c1)CCCC2N(CCC1CCNCC1)Cc1nccc2c1[nH]c1ccccc12 (stereo not drawn) | 55% |
| c1cnc2c(c1)CCCC2N(CCN1CCOCC1)Cc1nccc2c1[nH]c1ccccc12 (stereo not drawn) | 1% |
| c1cnc2c(c1)CCCC2N(CCCN1CCOCC1)Cc1nccc2c1[nH]c1ccccc12 (stereo not drawn) | 20% |
| c1cnc2c(c1)CCCC2N(CCN1CCNCC1)Cc1nccc2c1[nH]c1ccccc12 (stereo not drawn) | 0% |
| c1cnc2c(c1)CCCC2N(CCCCN1CCOCC1)Cc1nccc2c1[nH]c1ccccc12 (stereo not drawn) | 49% |
| CS(=O)(=O)N1CCC(CCN(Cc2nccc3c2[nH]c2ccccc23)C2CCCc3cccnc32)CC1 (stereo not drawn) | 5% |
| CS(=O)(=O)N1CCN(CCCN(Cc2nccc3c2[nH]c2ccccc23)C2CCCc3cccnc32)CC1 (stereo not drawn) | 27% |
| c1cnc2c(c1)CCC[C@@H]2NCc1cc2c(cn1)[nH]c1ccccc12 | 39% |
| CC(C)(C)OC(=O)N(CCCCN(Cc1nccc2c1[nH]c1ccccc12)[C@H]1CCCc2cccnc21)C(=O)OC(C)(C)C | 19% |
| CN(Cc1nccc2c1[nH]c1ccccc12)[C@H]1CCCc2cccnc21 | 0% |
| CC(C)CN(CCCCN(Cc1nccc2c1[nH]c1ccccc12)[C@H]1CCCc2cccnc21)CC(C)C | 23% |
| CC(C)(C)OC(=O)CN(CCCCN(Cc1nccc2c1[nH]c1ccccc12)[C@H]1CCCc2cccnc21)CC(=O)OC(C)(C)C | 18% |
| NCCCCN(C(=O)c1nccc2c1[nH]c1ccccc12)C1CCCc2cccnc21 (stereo not drawn) | 0% |
| c1cnc2c(c1)CCC[C@@H]2NCc1nccc2c1[nH]c1ccccc12 | 0% |

| Compound | inhibition at 1 µM |
| --- | --- |
| c1cnc(NCCCCN(Cc2nccc3c2[nH]c2ccccc23)[C@H]2CCCc3cccnc32)nc1 | 0% |
| O=C(NNc1ccccc1)c1ccc(CN(Cc2nccc3c2[nH]c2ccccc23)[C@H]2CCCc3cccnc32)cc1 | 0% |
| NCCCCN(Cc1cc2c3ccccc3n(CC(=O)N3CCOCC3)c2cn1)[C@H]1CCCc2cccnc21 | 0% |
| CS(=O)(=O)NCCCCN(Cc1nccc2c1[nH]c1ccccc12)[C@H]1CCCc2cccnc21 | 0% |
| OCCCCN(Cc1nccc2c1[nH]c1ccccc12)[C@H]1CCCc2cccnc21 | 0% |
| NCc1ccc(CN(Cc2nccc3c2[nH]c2ccccc23)[C@H]2CCCc3cccnc32)cc1 | 0% |
| NCC#CCN(Cc1nccc2c1[nH]c1ccccc12)[C@H]1CCCc2cccnc21 | 0% |
| CCNC(=O)NCCCCN(Cc1nccc2c1[nH]c1ccccc12)[C@H]1CCCc2cccnc21 | 0% |
| NC/C=C/CN(Cc1nccc2c1[nH]c1ccccc12)[C@H]1CCCc2cccnc21 | 20% |
| CN(Cc1nccc2c3ccccc3n(CCCCN3C(=O)c4ccccc4C3=O)c12)[C@H]1CCCc2cccnc21 | 32% |
| O=C(CN(Cc1nccc2c1[nH]c1ccccc12)[C@H]1CCCc2cccnc21)NC1CCNCC1 | 0% |
| O=C1c2ccccc2C(=O)N1CCCn1c2ccccc2c2ccnc(CN[C@H]3CCCc4cccnc43)c21 | 0% |
| CN(Cc1nccc2c3ccccc3n(Cc3cnn[nH]3)c12)[C@H]1CCCc2cccnc21 | 0% |
| NC1CCN(C(=O)CN(Cc2nccc3c2[nH]c2ccccc23)[C@H]2CCCc3cccnc32)CC1 | 0% |
| c1cnc2c(c1)CCC[C@@H]2N(Cc1ccc(N2CCNCC2)cc1)Cc1nccc2c1[nH]c1ccccc12 | 0% |
| CC(C)CN(Cc1nccc2c3ccccc3n(CCCN)c12)[C@H]1CCCc2cccnc21 | 0% |
| O=C(Cn1c2ccccc2c2ccnc(CN(C(=O)CCN3CCNCC3)[C@H]3CCCc4cccnc43)c21)N1CCOCC1 | 0% |
| CC(C)(C)OC(=O)[C@@H](N)CCCN(Cc1nccc2c3ccccc3n(CC(=O)N3CCOCC3)c12)[C@H]1CCCc2cccnc21 | 0% |
| NCc1ccc(CN(Cc2nccc3c4ccccc4n(CC(=O)N4CCOCC4)c23)[C@H]2CCCc3cccnc32)cc1 | 0% |
| N[C@@H](CCCN(Cc1nccc2c3ccccc3n(CC(=O)N3CCOCC3)c12)[C@H]1CCCc2cccnc21)C(=O)O | 0% |
| O=C(Cn1c2ccccc2c2ccnc(CN(Cc3ccc(CNCc4ccccn4)cc3)[C@H]3CCCc4cccnc43)c21)N1CCOCC1 | 0% |
| O=C1CNCCN1CCCN(Cc1nccc2c3ccccc3n(CC(=O)N3CCOCC3)c12)[C@H]1CCCc2cccnc21 | 0% |

same assay, conditions: CEM cells, SDF-1α challenge at EC80-EC90; read-out: Ca Flux IC50

| Compound | IC50 |
| --- | --- |
| c1ccc(CNCCCCN(Cc2nccc3c2[nH]c2ccccc23)C2CCCc3cccnc32)nc1 (stereo not drawn) | 5100 nM |
| NCCCCN(Cc1ccccn1)Cc1nccc2c1[nH]c1ccccc12 | 1970 nM |
| Cn1c2ccccc2c2cc(CN(CCCCN)[C@H]3CCCc4cccnc43)ncc21 | 57 nM |
| c1cnc2c(c1)CCC[C@@H]2N(CCCN1CCNCC1)Cc1cc2c(cn1)[nH]c1ccccc12 | 331 nM |
| NCCCCN(Cc1cc2c3ccccc3n(CC(=O)O)c2cn1)[C@H]1CCCc2cccnc21 | 864 nM |
| CC(C)(C)OC(=O)Cn1c2ccccc2c2cc(CN(CCCCN)[C@H]3CCCc4cccnc43)ncc21 | 949 nM |
| NC(=O)NCCCCN(Cc1nccc2c1[nH]c1ccccc12)[C@H]1CCCc2cccnc21 | 6670 nM |
| CCOC(=O)Cn1c2ccccc2c2ccnc(CN(CCCCN)[C@H]3CCCc4cccnc43)c21 | 15 nM |
| NCCCCN(Cc1nccc2c3ccccc3n(CC(=O)N3CCNCC3)c12)[C@H]1CCCc2cccnc21 | 663 nM |
| NCCCCN(Cc1nccc2c3ccccc3n(CC(=O)NC3CCNCC3)c12)[C@H]1CCCc2cccnc21 | 110 nM |
| NC/C=C\CN(Cc1nccc2c1[nH]c1ccccc12)[C@H]1CCCc2cccnc21 | 949 nM |
| NC(=O)CCCN(Cc1nccc2c1[nH]c1ccccc12)[C@H]1CCCc2cccnc21 | 1440 nM |
| CN(Cc1nccc2c3ccccc3n(CCCCN)c12)[C@H]1CCCc2cccnc21 | 3370 nM |
| CN(Cc1nccc2c3ccccc3n(CCCN3C(=O)c4ccccc4C3=O)c12)[C@H]1CCCc2cccnc21 | 217 nM |
| O=C(Cn1c2ccccc2c2ccnc(CN(CCCN3CCNCC3)[C@H]3CCCc4cccnc43)c21)N1CCOCC1 | 44 nM |
| NCCCCN(Cc1nccc2c3ccccc3n(CC(=O)N3CCC(N)CC3)c12)[C@H]1CCCc2cccnc21 | 4390 nM |
| CN(Cc1nccc2c3ccccc3n(CCN3C(=O)c4ccccc4C3=O)c12)[C@H]1CCCc2cccnc21 | 329 nM |
| CN(Cc1nccc2c3ccccc3n(CCCN)c12)[C@H]1CCCc2cccnc21 | 1050 nM |
| CN(Cc1nccc2c3ccccc3n(CCN)c12)[C@H]1CCCc2cccnc21 | 142 nM |

| Compound | IC50 |
| --- | --- |
| C#CCn1c2ccccc2c2ccnc(CN(CCCCN)[C@H]3CCCc4cccnc43)c21 | 9 nM |
| O=C(CN(Cc1nccc2c1[nH]c1ccccc12)[C@H]1CCCc2cccnc21)N1CCNCC1 | 1810 nM |
| NCCCCN(Cc1nccc2c3ccccc3n(CCN3CCOCC3)c12)[C@H]1CCCc2cccnc21 | 4 nM |
| NCCCn1c2ccccc2c2ccnc(CN[C@H]3CCCc4cccnc43)c21 | 8890 nM |
| NCCCCN(Cc1nccc2c3ccccc3n(CCO)c12)[C@H]1CCCc2cccnc21 | 11 nM |
| NCCCCN(Cc1nccc2c3ccccc3n(Cc3ccccn3)c12)[C@H]1CCCc2cccnc21 | 31 nM |
| CCN(Cc1nccc2c3ccccc3n(CCCN3C(=O)c4ccccc4C3=O)c12)[C@H]1CCCc2cccnc21 | 1640 nM |
| c1ccc(N2CCNCC2)c(CN(Cc2nccc3c2[nH]c2ccccc23)[C@H]2CCCc3cccnc32)c1 | 3730 nM |
| NCCCCN(Cc1nccc2c3ccccc3n(Cc3ccncc3)c12)[C@H]1CCCc2cccnc21 | 120 nM |
| CC(C)CN(Cc1nccc2c3ccccc3n(CCCN3C(=O)c4ccccc4C3=O)c12)[C@H]1CCCc2cccnc21 | 6650 nM |
| CCN(Cc1nccc2c3ccccc3n(CCCN)c12)[C@H]1CCCc2cccnc21 | 997 nM |
| NCCCCN(Cc1nccc2c3ccccc3n(Cc3cccnc3)c12)[C@H]1CCCc2cccnc21 | 481 nM |
| NCCCCN(Cc1nccc2c3ccccc3n(CC(=O)N3CCC(O)CC3)c12)[C@H]1CCCc2cccnc21 | 212 nM |
| CC(C)(C)OC(=O)[C@@H](N)CCCN(Cc1nccc2c1[nH]c1ccccc12)[C@H]1CCCc2cccnc21 | 9580 nM |
| CN1CCN(CCCN(Cc2nccc3c2[nH]c2ccccc23)[C@H]2CCCc3cccnc32)CC1 | 206 nM |
| c1cnc2c(c1)CCC[C@@H]2N(CCCN1CCNCC1)Cc1nccc2c3ccccc3n(CCN3CCOCC3)c12 | 24 nM |
| c1ccc(Cn2c3ccccc3c3ccnc(CN[C@H]4CCCc5cccnc54)c32)nc1 | 8390 nM |
| NCCCCN(Cc1nccc2c3ccccc3n(CC(=O)N3CC[S+]([O-])CC3)c12)[C@H]1CCCc2cccnc21 | 61 nM |
